PMC12169613 (Journal of Medicinal Chemistry, 2025)
Where two headings read alike, the source gives them in different places.

Assays:
Nluc-GPR1 = Nluc-GPR1 (Homo sapiens, UniProt P46091); assay: cell-based
Protocol: After overnight incubation at standard conditions, 75,000 cells/well were seeded into a black, solid 96-well plate using phenol red-free culture medium. […] (positive control) was added to the cells. […] The readout was performed directly in a microplate reader (Tecan Spark) with a filter for fluorescence (λem = 550–700 nm) and bioluminescence (λem = 430–470 nm). Data studies were performed as mentioned for arr-3 BRET.

human Y1 receptor (hY1R) = human Y1 receptor (hY1R) (Homo sapiens, UniProt P25929)
CMKLR1 [1] = target: CMKLR1 (Homo sapiens, UniProt Q99788)
Text: Data are presented as mean±SEM.
(2 pictures or pasted objects on this page, not shown here)

CMKLR1 [2] = conditions: cited from earlier work

Chain of Nluc-GPR1 (P46091 whole entry): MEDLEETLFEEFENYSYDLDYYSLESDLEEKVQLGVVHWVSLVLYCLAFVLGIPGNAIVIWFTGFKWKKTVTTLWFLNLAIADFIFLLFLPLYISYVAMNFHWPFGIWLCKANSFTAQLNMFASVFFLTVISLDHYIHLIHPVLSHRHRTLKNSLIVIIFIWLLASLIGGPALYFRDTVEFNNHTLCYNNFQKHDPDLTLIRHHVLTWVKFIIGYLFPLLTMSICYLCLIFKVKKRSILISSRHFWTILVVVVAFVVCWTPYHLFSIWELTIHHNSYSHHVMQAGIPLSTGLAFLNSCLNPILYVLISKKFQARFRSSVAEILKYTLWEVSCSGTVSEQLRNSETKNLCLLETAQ
Chain of CMKLR1 (Homo sapiens, UniProt Q99788) (Q99788 3-373): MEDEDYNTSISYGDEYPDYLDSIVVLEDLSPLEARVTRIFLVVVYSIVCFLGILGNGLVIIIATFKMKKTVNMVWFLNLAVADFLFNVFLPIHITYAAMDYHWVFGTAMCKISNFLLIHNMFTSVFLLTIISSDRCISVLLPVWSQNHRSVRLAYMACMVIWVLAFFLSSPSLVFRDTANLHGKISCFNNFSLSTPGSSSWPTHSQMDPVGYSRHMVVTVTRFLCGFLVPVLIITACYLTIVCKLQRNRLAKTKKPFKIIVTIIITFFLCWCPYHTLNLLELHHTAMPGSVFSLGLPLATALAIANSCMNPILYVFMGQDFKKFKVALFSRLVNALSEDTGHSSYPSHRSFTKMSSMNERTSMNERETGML
Chain of human Y1 receptor (hY1R) (P25929 whole entry): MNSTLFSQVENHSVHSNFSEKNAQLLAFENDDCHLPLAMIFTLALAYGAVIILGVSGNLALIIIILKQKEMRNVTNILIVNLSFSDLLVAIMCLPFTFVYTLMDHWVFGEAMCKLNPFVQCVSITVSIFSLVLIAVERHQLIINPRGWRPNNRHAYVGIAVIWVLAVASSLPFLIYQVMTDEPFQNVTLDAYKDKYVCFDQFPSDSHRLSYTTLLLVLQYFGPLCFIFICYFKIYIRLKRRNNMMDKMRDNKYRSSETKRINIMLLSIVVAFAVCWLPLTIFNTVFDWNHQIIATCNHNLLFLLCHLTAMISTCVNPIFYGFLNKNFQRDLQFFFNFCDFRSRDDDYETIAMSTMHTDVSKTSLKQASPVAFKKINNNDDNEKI

Compound	Ki (Nluc-GPR1) [nM]	Ki (Nluc-GPR1; read-out: Nluc-GPR1 Ki) [nM]	effect at hY1R (in words) (human Y1 receptor (hY1R))	influence on CMKLR1 G protein signaling (in words) (CMKLR1 [1])	IC50 (CMKLR1 [2]) [nM]
COc1ccc(C)cc1NC(=O)CSc1nc(=O)c(S(=O)(=O)c2ccc(C)c(Cl)c2)c[nH]1 [Compound 1, 2-{[5-(3-Chloro-4-methylbenzenesulfonyl)-4-oxo-1,4-dihydropyrimidin-2-yl]sulfanyl}-N-(2-methoxy-5-methyl-phenyl)acetamide]	> 1000	1320	no effect	–	–
C[N+](C)(C)CCC(=O)c1cccc2ccccc12.[I-] [α-NETA, 2-(α-naphthoyl)-ethyl-trimethylammonium iodide]	–	–	–	No influence	380
